Source: patent US20050170485A1, “Culture having phenol oxidase-like activity” (priority 2002, published 2005)

Key:
Type in all cases: biochemical
[1] = tested on: culture of Flammulina velutipes strain IFO 30601; experiment: Substrate specificity of the culture (phenol oxidase-like activity, Table 1); conditions: pH 7.0; determined wavelength per substrate (Table 1)
[2] = tested on: culture of Flammulina velutipes strain IFO 30601; experiment: Oxidative coupling reaction with 4-aminoantipyrine by the culture; conditions: for activity of the culture for the substrate in words, oxidative coupling reaction: pH 7.0; for Specific Activity, Culture (oxidative coupling with 4-aminoantipyrine): reaction pH 7.0, 25° C., substrate 2.0 mM
Method: Next, the oxidative coupling reaction of the culture obtained in (2) in Example 1 mentioned above was determined by using color development as an index by the oxidative condensation of the substrate (hydrogen donor) with 4-aminoantipyrine, catalyzed by the culture of the present invention.
As the hydrogen donors, there were used phenolic compounds (phenol, 2-methoxyphenol, 2,6-dimethoxyphenol, catechol, resorcinol, hydroquinone, pyrogallol, gallic acid, propyl gallate, 1-naphthol, catechin), aminophenolic compounds (o-aminophenol, m-aminophenol, p-aminophenol), diaminophenolic compounds (o-phenylenediamine, m-phenylenediamine, p-phenylenediamine), and heterocyclic compounds (5-hydroxyindole, 2,6-diaminopyridine).
The above-mentioned culture solution was added to a reaction system containing 4-aminoantipyrine and an optional hydrogen donor. Thereafter, the activity of the culture of the present invention was assayed by determining a change in absorbance at 490 nm for the phenolic compound, the diaminophenolic compound and the heterocyclic compound, or determining a change in absorbance at 450 nm for the aminophenolic compound. As to a substrate hardly soluble in water, there was used one obtained by dissolving the substrate in a small amount of dimethyl sulfoxide and diluting the resulting solution with deionized water to a desired concentration. In Table 4, DMSO is an abbreviation for dimethyl sulfoxide.
(§1) Concretely, 190 μl of 105.3 mM phosphate buffer (pH 7.0) containing 0.4 μmol of a substrate and 4.0 μmol of 4-aminoantipyrine was pre-incubated in wells of a 96-well microplate [manufactured by Corning, Costor (registered trademark) 3368] at 25° C. for 1 minute. Next, 10 μl of the above-mentioned culture solution was added to the resulting mixture, and thereafter, the mixture was incubated for 1 hour. A change in absorbance at 490 nm or 450 nm was determined for the resulting product. One unit (U) of the activity regarding the oxidative coupling reaction was defined as an amount for increasing the absorbance by 1 per one minute.

[3] = biological target: T1, bilirubin oxidase from the strain of the genus Myrothecium (Albifimbria verrucaria, UniProt Q12737); experiment: Oxidative coupling reaction with 4-aminoantipyrine by bilirubin oxidase (comparison); conditions: reaction pH 8.0, substrate 2.0 mM
T1 sequence (Q12737 39-572): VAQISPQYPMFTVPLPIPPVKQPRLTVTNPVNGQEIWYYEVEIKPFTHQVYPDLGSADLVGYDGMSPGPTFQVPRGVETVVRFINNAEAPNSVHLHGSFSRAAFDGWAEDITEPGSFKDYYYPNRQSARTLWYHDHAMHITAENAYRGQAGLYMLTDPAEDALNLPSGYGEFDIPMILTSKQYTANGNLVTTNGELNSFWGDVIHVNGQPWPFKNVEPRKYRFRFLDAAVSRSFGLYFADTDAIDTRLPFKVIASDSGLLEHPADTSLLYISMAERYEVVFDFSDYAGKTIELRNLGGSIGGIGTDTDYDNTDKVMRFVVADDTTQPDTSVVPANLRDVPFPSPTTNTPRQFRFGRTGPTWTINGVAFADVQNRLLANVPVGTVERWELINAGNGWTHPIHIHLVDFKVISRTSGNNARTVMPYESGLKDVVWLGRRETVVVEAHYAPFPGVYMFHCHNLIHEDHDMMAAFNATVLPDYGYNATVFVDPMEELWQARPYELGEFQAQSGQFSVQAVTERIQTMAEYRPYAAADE
Method: as §1
In addition, for the comparison, the examination was made in the same manner for bilirubin oxidase from the strain of the genus Myrothecium except that the above-mentioned buffer was replaced with 105.3 mM Tris-HCl buffer (pH 8.0).

[4] = tested on: culture of Flammulina velutipes strain IFO 30601; experiment: Direct oxidation reaction by the culture; conditions: for activity of the culture for the substrate in words, direct oxidation reaction: pH 7.0; for activity of the culture compared with bilirubin oxidase from the genus Myrothecium, direct oxidation / activity of the culture compared with laccase from Japanese lacquer, direct oxidation: pH 7.0, relative activities of Table 7; for Relative Activity, Culture (direct oxidation): reaction pH 7.0, 2-chloro 1,4-phenylenediamine = 100
Method: Further, the direct oxidation reaction of the culture obtained in the above-mentioned example was determined by using color development due to oxidative polymerization of a substrate generated by the direct action of the culture of the present invention on the substrate as an index.
As the substrates, there were used diaminophenolic compounds (2-chloro 1,4-phenylenediamine, p-phenylenediamine, 2,5-diaminotoluene, N-phenyl-p-phenylenediamine, toluylene-3,4-diamine, m-phenylenediamine), aminophenolic compounds (o-aminophenol, m-aminophenol, 5-amino-o-cresol, p-aminophenol, p-methylaminophenol), and phenolic compounds (2,6-dimethoxyphenol, catechol, resorcinol, hydroquinone, pyrogallol, gallic acid, propyl gallate, 1-naphthol, […], 2,3,4-trihydroxybenzophenone, 2,3,4,4-tetrahydroxybenzophenone). As to a substrate hardly soluble in water, there was used one obtained by dissolving the substrate in a small amount of dimethyl sulfoxide and diluting the resulting solution with deionized distilled water to a desired concentration. In Table 6, %” indicates volume/volume %.
(§2) Concretely, 180 μl of 0.89 mM sodium phosphate buffer (pH 7.0) containing […] substrate was pre-incubated in wells of a 96-well microplate [manufactured by Corning, Costor (registered trademark) 3368] at 25° C. for 1 minute. Next, 20 μl of the above-mentioned culture solution was added to the resulting mixture. A change in absorbance at 490 nm, 450 nm or 405 nm was determined for the resulting product, depending on the substrate. Here, 1 U (unit) of the activity regarding the direct oxidative reaction was defined as an amount for increasing the absorbance by 1 per one minute.

[5] = tested on: laccase from Japanese lacquer; experiment: Direct oxidation reaction by laccase (comparison); conditions: reaction pH 7.0; 2-chloro 1,4-phenylenediamine = 100
Method: Next, 20 μl of the above-mentioned culture solution was added to the resulting mixture. A change in absorbance at 490 nm, 450 nm or 405 nm was determined for the resulting product, depending on the substrate. Here, 1 U (unit) of the activity regarding the direct oxidative reaction was defined as an amount for increasing the absorbance by 1 per one minute.
(§3) In addition, for the comparison, the substrate specificities at pH 7.0 for laccase from Japanese lacquer and bilirubin oxidase from the strain belonging to the genus Myrothecium were also examined in the same manner.

[6] = biological target: T2, bilirubin oxidase from the strain belonging to the genus Myrothecium (Albifimbria verrucaria, UniProt Q12737); experiment: Direct oxidation reaction by bilirubin oxidase (comparison); design: concentration or dose not given beside the values; conditions: reaction pH 7.0; 2-chloro 1,4-phenylenediamine = 100
T2 sequence (Q12737 39-572): T1 sequence (Q12737 39-572)
Method: as §2, §3
The relative activity (%) for each substrate is shown in Table 7, in which the measured value for a case where a representative chemical dye 2-chloro 1,4-phenylenediamine was used as a substrate is 100.

Compound | U (activity of the culture on the substrate) [1] [U] | activity of the culture for the substrate in words, oxidative coupling reaction [2] | Specific Activity, Culture (oxidative coupling with 4-aminoantipyrine) [2] [U/mg Protein] | Specific Activity, Bilirubin Oxidase from Strain Belonging to Genus Myrothecium (oxidative coupling with 4-aminoantipyrine) [3] [U/mg Protein] | activity of the culture for the substrate in words, direct oxidation reaction [4] | activity of the culture compared with bilirubin oxidase from the genus Myrothecium, direct oxidation [4] | activity of the culture compared with laccase from Japanese lacquer, direct oxidation [4] | Relative Activity, Culture (direct oxidation) [4] [%] | Relative Activity, Laccase from Japanese Lacquer (direct oxidation) [5] [%] | Relative Activity, Bilirubin Oxidase from Strain Belonging to Genus Myrothecium (direct oxidation) [6] [%]
COc1cccc(OC)c1O [2,6-Dimethoxyphenol] | 0.830 | especially high activity | 18.1 | 12.0 | high activity | even higher activity | even higher activity | 250 | 21 | 69
CCn1c(=NN=c2sc3cc(S(=O)(=O)O)ccc3n2CC)sc2cc(S(=O)(=O)O)ccc21 [ABTS] | 0.683 |  |  |  |  |  |  |  |  | 
Oc1cccc2[nH]ccc12 [4-Hydroxyindole] | 0.078 |  |  |  |  |  |  |  |  | 
Oc1ccccc1O [Catechol] | 0.029 | especially high activity | 23.3 | 16.0 |  | higher activity | even higher activity | 21 | 2 | 5
Nc1ccc(N)cc1 [p-Phenylenediamine] | 0.101 |  | 20.9 | 11.1 | especially high activity | higher activity | higher activity | 388 | 142 | 82
Nc1ccccc1O [o-Aminophenol] | 0.262 | especially high activity | 22.4 | 15.1 | especially high activity | even higher activity | even higher activity | 650 | 103 | 86
COc1cc(/C=N/N=C/c2cc(OC)c(O)c(OC)c2)cc(OC)c1O [Syringaldazine] | 0.141 |  |  |  |  |  |  |  |  | 
Oc1ccc(O)cc1 [Hydroquinone] |  |  | 2.1 | 0.5 |  | even higher activity | even higher activity | 20 | 2 | 4
Nc1cccc(N)c1 [m-Phenylenediamine] |  |  | 29.7 | 1.7 |  |  | even higher activity | 26 | 4 | 14
N[C@@H](Cc1ccc(O)cc1)C(=O)O [L-Tyrosine] | 0.018 |  |  |  |  |  |  |  |  | 
COc1ccccc1O [2-Methoxyphenol] | 0.117 | especially high activity | 14.5 | 2.5 |  |  |  |  |  | 
Nc1cccc(O)c1 [m-Aminophenol] |  |  | 8.8 | 1.3 |  | even higher activity | even higher activity | 40 | 3 | 3
Oc1cccc2ccccc12 [1-Naphthol] |  | especially high activity | 18.1 | 33.0 |  | even higher activity |  | 17 | 17 | 50
